Consider two molecules from publication PMC5614966, “Xanthates As Useful Probes for Testing the Active Sites of Cytochromes P450 4A11 and 2E1” (Frontiers in Pharmacology, 2017).

In one data set the target is CYP2E1 (Oryctolagus cuniculus, UniProt P08682). As to the kind of experiment: time- and concentration-dependent (mechanism-based) inactivation of 7-EFC O-deethylation, KI with kinact […] min^-1. In kind it is biochemical. The note with it: read-out: KI_inact.
The target of a further data set is T1, CYP4A11 (Homo sapiens, UniProt Q02928).
T1 sequence (Q02928 5-519): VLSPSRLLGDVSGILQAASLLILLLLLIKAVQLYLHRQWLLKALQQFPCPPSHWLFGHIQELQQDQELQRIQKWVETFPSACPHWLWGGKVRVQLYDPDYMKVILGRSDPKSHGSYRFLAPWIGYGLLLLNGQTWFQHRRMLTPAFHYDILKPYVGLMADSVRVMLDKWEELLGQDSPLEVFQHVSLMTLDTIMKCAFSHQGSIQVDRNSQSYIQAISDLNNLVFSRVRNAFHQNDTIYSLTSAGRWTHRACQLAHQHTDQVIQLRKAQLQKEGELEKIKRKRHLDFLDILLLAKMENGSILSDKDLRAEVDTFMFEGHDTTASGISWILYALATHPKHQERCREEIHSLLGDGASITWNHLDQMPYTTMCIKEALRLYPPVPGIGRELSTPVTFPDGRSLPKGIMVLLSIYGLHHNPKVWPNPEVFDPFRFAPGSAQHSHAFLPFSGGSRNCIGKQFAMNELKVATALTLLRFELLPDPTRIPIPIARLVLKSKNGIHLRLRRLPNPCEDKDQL
The data set can be described thus: inhibition of lauric acid omega-hydroxylation by CYP4A11 supersomes, HPLC-fluorescence, Lineweaver-Burk. It counts as biochemical.

Substrate in data set [1]: CCCCCCCCCCCC(=O)O
As to the kind of experiment: Michaelis-Menten kinetics of omega-hydroxylation by CYP4A11 supersomes (Km). The note with it: heme; NADPH. It counts as biochemical, Homo sapiens.

CYP2E1, sequence (P08682 whole entry): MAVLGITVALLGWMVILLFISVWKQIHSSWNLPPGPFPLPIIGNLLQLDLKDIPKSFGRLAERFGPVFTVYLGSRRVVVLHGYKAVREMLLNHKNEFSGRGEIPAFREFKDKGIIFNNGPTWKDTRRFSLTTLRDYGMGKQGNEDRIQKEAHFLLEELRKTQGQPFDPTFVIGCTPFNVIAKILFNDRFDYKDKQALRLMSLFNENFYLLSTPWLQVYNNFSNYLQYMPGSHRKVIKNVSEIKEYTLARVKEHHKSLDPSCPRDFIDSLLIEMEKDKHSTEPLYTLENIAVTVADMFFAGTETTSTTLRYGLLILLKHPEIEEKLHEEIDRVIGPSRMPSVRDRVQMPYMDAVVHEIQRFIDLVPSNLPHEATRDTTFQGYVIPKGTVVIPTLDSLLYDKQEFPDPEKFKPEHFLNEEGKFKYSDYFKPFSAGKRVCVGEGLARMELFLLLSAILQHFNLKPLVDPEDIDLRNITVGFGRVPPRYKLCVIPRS

`CCCCCCCCCCCCOC(=S)S` [C12, potassium O-dodecyl carbonodithioate]: the KI (inactivation) at CYP2E1 came to 312 µM. The molecule also registered an inhibition constant (Ki) on CYP4A11 of 9 ± 1 µM.

B1: CYP4A11 (Homo sapiens) (protein)
chain: VLSPSRLLGDVSGILQAASLLILLLLLIKAVQLYLHRQWLLKALQQFPCPPSHWLFGHIQELQQDQELQRIQKWVETFPSACPHWLWGGKVRVQLYDPDYMKVILGRSDPKSHGSYRFLAPWIGYGLLLLNGQTWFQHRRMLTPAFHYDILKPYVGLMADSVRVMLDKWEELLGQDSPLEVFQHVSLMTLDTIMKCAFSHQGSIQVDRNSQSYIQAISDLNNLVFSRVRNAFHQNDTIYSLTSAGRWTHRACQLAHQHTDQVIQLRKAQLQKEGELEKIKRKRHLDFLDILLLAKMENGSILSDKDLRAEVDTFMFEGHDTTASGISWILYALATHPKHQERCREEIHSLLGDGASITWNHLDQMPYTTMCIKEALRLYPPVPGIGRELSTPVTFPDGRSLPKGIMVLLSIYGLHHNPKVWPNPEVFDPFRFAPGSAQHSHAFLPFSGGSRNCIGKQFAMNELKVATALTLLRFELLPDPTRIPIPIARLVLKSKNGIHLRLRRLPNPCEDKDQL
Turning to B1, the Michaelis constant (Km) in data set [1] came out at 11.8 µM.
